Test results reported in patent US20240360165A1, “INHIBITORS OF CYCLIN DEPENDENT KINASE 7 (CDK7)” (Syros Pharmaceuticals, Inc., priority 2016, published 2024).
Read-outs that look alike come from different tables or passages of the source.

Key:
[1] = target: CDK7/Cyclin H/MAT1 complex (Homo sapiens, UniProt P50613); test: CDK7 inhibition assay (Caliper/LabChip EZ Reader kinase assay); format: biochemical; settings: Table 1, CDK7/Cyclin H/MAT1 6 nM, ATP 2 mM, 35 min at 27° C.
Method in brief: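 A Perkin Elmer Caliper/LabChip EZ Reader (Waltham, MA) platform served as the basis for this CDK7 kinase inhibition assay. The work was carried out by Biortus Biosciences, located in Jiangyin, Jiangsu Province, P.R. of China. Each CDK studied had its own kinase assay, and compounds were evaluated for their ability to block CDK7 activity.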

[2] = target: T1, CDK12 (aa686-1082)/Cyclin K complex (Homo sapiens, UniProt Q9NYV4); test: CDK12 inhibition assay (Caliper/LabChip EZ Reader kinase assay); format: biochemical; settings: Table 1, CDK12 (aa686-1082)/Cyclin K 50 nM, ATP 2 mM, 3 hr at 27° C.
T1 construct: CDK12 (aa686-1082)/Cyclin K complex

A673 cells = test: Inhibition of proliferation of A673 cells (CyQUANT, 72 hour); format: cell-based, human; settings: A673 cells, 72 hour, CyQUANT, read-out: Inhibition of Proliferation of A673 Cells (calculated IC50)
Method in brief: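 Proliferation read-out by CyQUANT after a 72 h exposure, compounds spanning 4 μM–[…] in half-log steps. A673 cells cultured at 37° C under 5% CO2 in DMEM supplemented with 10% FBS plus 1 mM sodium pyruvate.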

CDK9/Cyclin T1 complex = CDK9/Cyclin T1 complex (Homo sapiens, UniProt P50750); test: CDK9 inhibition assay (Caliper/LabChip EZ Reader kinase assay); format: biochemical; settings: Table 1, CDK9/Cyclin T1 8 nM, ATP 2 mM, 15 min at 27° C.
Method in brief: (§1)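 Activity read as fluorescent peptide conversion on a LabChip EZ Reader. For CDK2/Cyclin E1 (0.5 nM), substrate was 5-FAM-CDK7tide (2 μM) with 2 mM MgCl2; for CDK9/Cyclin T1 (8 nM), 5-FAM-CDK9tide (2 μM) with 10 mM MgCl2.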

HCC70 cells = test: Inhibition of proliferation of HCC70 cells (CyQUANT Direct Cell Proliferation Assay, 72 hour); format: cell-based, human
Method in brief: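 Human triple-negative breast cancer HCC70 cells cultured at 37° C, 5% CO2, with compound for 72 hour. Anti-proliferative effect read by CyQUANT Direct Cell Proliferation Assay. Dinaciclib, a CDK inhibitor analog and triptolide served as positive controls.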

CDK2/Cyclin E1 complex = CDK2/Cyclin E1 complex (Homo sapiens, UniProt P24941); test: CDK2 inhibition assay (Caliper/LabChip EZ Reader kinase assay); format: biochemical; settings: Table 1, CDK2/Cyclin E1 0.5 nM, ATP 2 mM, 35 min at 27° C.
Method in brief: as §1

[3] = Homo sapiens, HCC70, 72 h, read-out: Inhibition of Proliferation of HCC70 Cells (calculated IC50)

CDK9/Cyclin T1 complex, sequence (P50750 whole entry, species assumed): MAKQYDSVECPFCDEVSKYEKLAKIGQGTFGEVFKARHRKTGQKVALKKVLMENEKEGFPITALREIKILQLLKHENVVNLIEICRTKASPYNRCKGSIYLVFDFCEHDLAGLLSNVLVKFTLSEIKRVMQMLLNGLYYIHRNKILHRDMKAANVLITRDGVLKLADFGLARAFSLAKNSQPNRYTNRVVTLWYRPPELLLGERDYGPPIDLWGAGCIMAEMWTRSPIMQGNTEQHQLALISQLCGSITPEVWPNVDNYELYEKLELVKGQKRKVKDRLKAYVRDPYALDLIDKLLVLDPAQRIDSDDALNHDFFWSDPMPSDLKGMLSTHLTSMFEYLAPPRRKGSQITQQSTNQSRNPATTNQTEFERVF
CDK9/Cyclin T1 complex, sequence (O60563 whole entry partner, species assumed): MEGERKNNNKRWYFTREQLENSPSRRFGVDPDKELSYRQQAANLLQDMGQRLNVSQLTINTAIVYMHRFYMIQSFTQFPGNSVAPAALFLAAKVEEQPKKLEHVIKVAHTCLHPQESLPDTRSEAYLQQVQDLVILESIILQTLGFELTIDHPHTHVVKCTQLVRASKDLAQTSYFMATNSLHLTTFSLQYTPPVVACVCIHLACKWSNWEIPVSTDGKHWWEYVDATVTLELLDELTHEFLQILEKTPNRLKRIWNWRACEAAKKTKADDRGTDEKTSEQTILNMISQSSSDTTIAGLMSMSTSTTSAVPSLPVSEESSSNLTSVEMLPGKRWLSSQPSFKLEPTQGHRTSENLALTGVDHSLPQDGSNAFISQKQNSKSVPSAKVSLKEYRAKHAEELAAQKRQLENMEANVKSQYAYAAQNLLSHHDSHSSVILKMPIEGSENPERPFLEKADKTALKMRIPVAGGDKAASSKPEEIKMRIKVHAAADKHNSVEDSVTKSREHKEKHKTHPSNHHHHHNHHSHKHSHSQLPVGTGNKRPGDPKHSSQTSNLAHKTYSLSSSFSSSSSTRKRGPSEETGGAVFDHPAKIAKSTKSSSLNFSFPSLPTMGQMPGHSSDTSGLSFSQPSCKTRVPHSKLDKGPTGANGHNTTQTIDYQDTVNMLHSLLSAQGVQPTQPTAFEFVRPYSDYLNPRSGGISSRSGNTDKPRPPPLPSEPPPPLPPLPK
CDK7/Cyclin H/MAT1 complex, sequence (P50613 whole entry, species assumed): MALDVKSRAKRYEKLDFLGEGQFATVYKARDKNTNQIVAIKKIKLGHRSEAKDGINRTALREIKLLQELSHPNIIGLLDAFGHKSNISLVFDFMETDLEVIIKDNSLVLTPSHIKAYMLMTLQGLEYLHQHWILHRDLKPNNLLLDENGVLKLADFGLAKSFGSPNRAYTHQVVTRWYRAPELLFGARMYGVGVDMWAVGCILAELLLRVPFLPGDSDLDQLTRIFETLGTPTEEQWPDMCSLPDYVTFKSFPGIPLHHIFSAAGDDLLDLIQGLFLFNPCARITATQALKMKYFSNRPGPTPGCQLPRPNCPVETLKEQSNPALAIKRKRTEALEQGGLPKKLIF
CDK7/Cyclin H/MAT1 complex, sequence (P51946 whole entry partner, species assumed): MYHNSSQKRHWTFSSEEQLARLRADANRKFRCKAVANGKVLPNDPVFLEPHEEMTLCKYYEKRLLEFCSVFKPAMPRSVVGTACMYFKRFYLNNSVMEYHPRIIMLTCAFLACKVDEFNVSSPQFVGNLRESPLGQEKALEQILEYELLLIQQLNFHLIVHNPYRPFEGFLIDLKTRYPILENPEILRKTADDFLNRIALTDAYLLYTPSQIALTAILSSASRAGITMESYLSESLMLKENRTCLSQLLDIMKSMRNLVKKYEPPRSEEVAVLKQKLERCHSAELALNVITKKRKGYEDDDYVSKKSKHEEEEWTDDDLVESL
CDK7/Cyclin H/MAT1 complex, sequence (P51948 whole entry partner, species assumed): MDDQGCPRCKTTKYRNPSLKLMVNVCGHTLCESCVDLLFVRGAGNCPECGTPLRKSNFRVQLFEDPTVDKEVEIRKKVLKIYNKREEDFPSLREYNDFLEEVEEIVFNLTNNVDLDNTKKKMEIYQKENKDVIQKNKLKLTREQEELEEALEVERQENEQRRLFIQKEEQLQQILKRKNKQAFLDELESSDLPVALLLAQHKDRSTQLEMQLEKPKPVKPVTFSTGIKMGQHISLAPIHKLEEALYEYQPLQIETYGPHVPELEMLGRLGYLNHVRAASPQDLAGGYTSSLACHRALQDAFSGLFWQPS
T1 sequence (Q9NYV4 686-1082, species assumed): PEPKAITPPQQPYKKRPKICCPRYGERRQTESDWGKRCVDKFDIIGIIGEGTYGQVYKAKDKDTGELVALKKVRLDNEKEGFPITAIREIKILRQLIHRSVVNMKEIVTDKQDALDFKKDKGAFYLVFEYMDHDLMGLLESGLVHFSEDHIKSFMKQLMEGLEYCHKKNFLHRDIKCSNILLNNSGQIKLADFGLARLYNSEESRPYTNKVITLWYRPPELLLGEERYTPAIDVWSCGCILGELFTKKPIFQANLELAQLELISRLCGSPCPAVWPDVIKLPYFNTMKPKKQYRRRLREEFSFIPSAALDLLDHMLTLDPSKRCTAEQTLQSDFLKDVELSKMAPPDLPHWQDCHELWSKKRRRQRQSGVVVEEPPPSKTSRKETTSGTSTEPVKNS
T1 sequence (O75909 whole entry partner, species assumed, the tested form may be a part): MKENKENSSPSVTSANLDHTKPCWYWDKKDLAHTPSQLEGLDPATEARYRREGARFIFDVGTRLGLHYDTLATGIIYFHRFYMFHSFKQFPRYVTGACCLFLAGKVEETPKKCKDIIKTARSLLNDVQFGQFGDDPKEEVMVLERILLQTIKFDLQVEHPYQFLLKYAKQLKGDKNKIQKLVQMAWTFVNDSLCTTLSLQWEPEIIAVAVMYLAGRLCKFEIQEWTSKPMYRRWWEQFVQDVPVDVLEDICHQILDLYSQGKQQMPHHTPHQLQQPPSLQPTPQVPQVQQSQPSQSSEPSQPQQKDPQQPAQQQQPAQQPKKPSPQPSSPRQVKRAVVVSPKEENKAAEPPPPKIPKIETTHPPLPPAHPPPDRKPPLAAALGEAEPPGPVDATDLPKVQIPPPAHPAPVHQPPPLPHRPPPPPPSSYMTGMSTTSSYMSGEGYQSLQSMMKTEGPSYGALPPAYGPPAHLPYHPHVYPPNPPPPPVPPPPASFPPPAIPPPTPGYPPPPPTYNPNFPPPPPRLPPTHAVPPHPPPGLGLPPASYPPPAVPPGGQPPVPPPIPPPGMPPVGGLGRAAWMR

Compound	IC50 [1] [nM]	IC50 [2] [nM]	IC50 (A673 cells; Homo sapiens, A673, 72 h) [nM]	IC50 (CDK9/Cyclin T1 complex) [nM]	IC50 (HCC70 cells; [3]) [nM]	IC50 (CDK2/Cyclin E1 complex) [nM]	further results
FC(F)n1ccc(-c2ccc3c(-c4nc(N[C@H]5CCCNC5)ncc4C(F)(F)F)c[nH]c3c2)n1 [Compound 289, 4-[6-[1-(difluoromethyl)pyrazol-3-yl]-1H-indol-3-yl]-N-[(3S)-3-piperidyl]-5-(trifluoromethyl) pyrimidin-2-amine]	20 to 200	200 to 5000	20 to 200	200 to 5000	100 to 1000	200 to 5000	
N#Cc1ccc2c(-c3nc(N[C@H]4CCCNC4)ncc3C(F)(F)F)c[nH]c2c1-c1ccnnc1 [Compound 261, 3-[2-[[(3S)-3-piperidyl]amino]-5-(trifluoromethyl)pyrimidin-4-yl]-7-pyridazin-4-yl-1H-indole-6-carbonitrile]	20 to 200	200 to 5000	< 20	200 to 5000	< 100	200 to 5000	
CCS(=O)(=O)c1cccc2c(-c3nc(N[C@H]4CCCNC4)ncc3C(F)(F)F)c[nH]c12 [Compound 286]	< 20	200 to 5000	200 to 5000	200 to 5000	1000 to 5000	200 to 5000	
N#Cc1ccc2c(-c3nc(N[C@H]4CCCNC4)ncc3C(F)(F)F)c[nH]c2n1 [Compound 251, 3-[2-[[(3S)-3-piperidyl]amino]-5-(trifluoromethyl)pyrimidin-4-yl]-1H-pyrrolo [2,3-b] pyridine-6-carbonitrile]	< 20	200 to 5000	< 20	200 to 5000	< 100	200 to 5000	
CCc1cnc(N[C@H]2CCCNC2)nc1-c1n[nH]c2nc(C#N)ccc12 [Compound 277, (S)-3-(5-ethyl-2-(piperidin-3-ylamino)pyrimidin-4-yl)-1H-pyrazolo[3,4-b]pyridine-6-carbonitrile]	< 20	200 to 5000	20 to 200	200 to 5000	100 to 1000	200 to 5000	
C[C@H]1CCNC[C@H]1Nc1ncc(C(F)(F)F)c(-c2c[nH]c3ccccc23)n1 [Compound 285]	200 to 5000	> 5000	< 20	> 5000	< 100	> 5000	
Cc1n[nH]cc1-c1cccc2c(-c3nc(NC4CCCNC4)ncc3C(F)(F)F)c[nH]c12 (stereo in doubt) [Compound 175]	< 20	200 to 5000	< 20	20 to 200	1000 to 5000	200 to 5000	
FC(F)(F)c1cnc(N[C@H]2CCCNC2)nc1-c1c[nH]c2c(-c3ccnnc3)cccc12 [Compound 180]	< 20	20 to 200	< 20	200 to 5000	< 100	20 to 200	
CS(=O)(=O)c1c(C#N)ccc2c(-c3nc(N[C@H]4CCCNC4)ncc3C(F)(F)F)c[nH]c12 [Compound 232, 7-methylsulfonyl-3-[2-[[(3S)-3-piperidyl]amino]-5-(trifluoromethyl)pyrimidin-4-yl]-1H-indole-6-carbonitrile]	< 20	200 to 5000	< 20	200 to 5000	< 100	200 to 5000	
O=C(C1CCC(Nc2ncc(C(F)(F)F)c(-c3c[nH]c4ccccc34)n2)CN1)N1CCC(O)C1 (mixture of isomers) [Compound 250]	< 20	200 to 5000		> 5000	1000 to 5000	200 to 5000	IC50 (A673 cells): 200 to 5000 nM
CCc1cnc(N[C@H]2CCCNC2)nc1-c1c[nH]c2c(S(C)(=O)=O)c(C#N)ccc12 [Compound 263, 3-[5-ethyl-2-[[(3S)-3-piperidyl]amino]pyrimidin-4-yl]-7-methylsulfonyl-1H-indole-6-carbonitrile]	< 20	> 5000	20 to 200	> 5000	100 to 1000	> 5000	
Cn1cc(-c2nc(NC3CCCNC3)ncc2C(F)(F)F)c2ccc(C#N)nc21 (stereo not shown) [Compound 273]	200 to 5000	> 5000	200 to 5000	> 5000	1000 to 5000	> 5000	
N#C[C@H]1CCN(C(=O)c2ccc3c(-c4nc(N[C@H]5CCCNC5)ncc4C(F)(F)F)c[nH]c3c2)C1 [Compound 293, (3S)-1-[3-[2-[[(3S)-3-piperidyl]amino]-5-(trifluoromethyl)pyrimidin-4-yl]-1H-indole-6-carbonyl] pyrrolidine-3-carbonitrile]	< 20	200 to 5000		200 to 5000	100 to 1000	200 to 5000	IC50 ([1]; listed as 108): 20 to 200 nM; IC50 ([2]; listed as 108): 200 to 5000 nM; IC50 (A673 cells): 200 to 5000 nM; IC50 (CDK9/Cyclin T1 complex; listed as 108): 200 to 5000 nM; IC50 (CDK2/Cyclin E1 complex; listed as 108): 200 to 5000 nM
COCn1cc(-c2nc(NC3CCCNC3)ncc2C(F)(F)F)c2ccc(C#N)nc21 (stereo not shown) [Compound 283]	200 to 5000	> 5000	200 to 5000	> 5000	1000 to 5000	> 5000	
CC1(O)CCN(C(=O)c2ccc3c(-c4nc(N[C@H]5CCCNC5)ncc4C(F)(F)F)c[nH]c3c2)C1 (single isomer, unassigned) [Compound 221]	< 20	> 5000	200 to 5000	> 5000	100 to 1000	> 5000	
CC1(C)CC[C@H](Nc2ncc(C(F)(F)F)c(-c3c[nH]c4ccccc34)n2)CN1 [Compound 190]	< 20	200 to 5000	< 20	200 to 5000	100 to 1000	200 to 5000	
FC(F)(F)c1cnc(N[C@H]2CCCNC2)nc1-c1c[nH]c2cc(-c3cccc(Oc4ccccc4)c3)ccc12 [Compound 341, 4-[6-(3-phenoxyphenyl)-1H-indol-3-yl]-N-[(3S)-3-piperidyl]-5 (trifluoromethyl) pyrimidin-2-amine]	200 to 5000	> 5000		> 5000	1000 to 5000	> 5000	IC50 ([1]; listed as 141): < 20 nM; IC50 ([2]; listed as 141): 200 to 5000 nM; IC50 (A673 cells): < 20 nM; IC50 (CDK9/Cyclin T1 complex; listed as 141): 200 to 5000 nM; IC50 (HCC70 cells; listed as 141, read-out: Inhibition of Proliferation of HCC70 Cells (calculated IC50)): < 100 nM; IC50 (CDK2/Cyclin E1 complex; listed as 141): 200 to 5000 nM
N#Cc1ccc2c(-c3nc(N[C@@H]4CNC[C@H](O)C4)ncc3C(F)(F)F)c[nH]c2c1 [Compound 370, 3-[2-[[(3S,5R)-5-hydroxy-3-piperidyl]amino]-5-(trifluoromethyl)pyrimidin-4-yl]-1H-indole-6-carbonitrile]	20 to 200	200 to 5000		> 5000	100 to 1000	> 5000	IC50 ([1]; listed as 130): > 5000 nM; IC50 ([2]; listed as 130): > 5000 nM; IC50 (A673 cells): 200 to 5000 nM
Cn1cc(-c2nc(NC3CCCNC3)ncc2C(F)(F)F)c2cccc(C#N)c21 (stereo not shown) [Compound 279]	20 to 200	> 5000	200 to 5000	> 5000	1000 to 5000	> 5000	
FC(F)(F)c1cnc(N[C@H]2CCCNC2)nc1-c1c[nH]c2cc(-c3cnccn3)ccc12 [Compound 328]	< 20	200 to 5000		200 to 5000		200 to 5000	IC50 (HCC70 cells; read-out: Inhibition of Proliferation of HCC70 Cells (calculated IC50)): < 100 nM
